The results in this text go back to patent US5114918A, “Endothelin antagonistic cyclic pentapeptides” (Banyu Pharmaceutical Co., Ltd., priority 1989, dated 1992).

Read-outs that look alike come from different tables or passages of the source. Numbered stars: 1 amine (or outer) side, 2 acyl side, 3 side chain; on linkers, the order of the positions; unused ones are H or OH. Square brackets hold non-standard residues; d marks the D form. Peptide text beside a SMILES is read from it. * marks the point of attachment. X2 = CNC(=O)Cn1cc(C[C@@H](N[*:1])C(=O)[*:2])c2ccccc21; X3 = NC(=O)Cn1cc(C[C@@H](N[*:1])C(=O)[*:2])c2ccccc21; dGly(2-thienyl) = N[C@@H](C(=O)O)c1cccs1; X1 = CC[C@](N[*:1])(C(=O)[*:2])c1cccs1; dGly(cPent) = N[C@@H](C(=O)O)C1CCCC1; d(aIle) = CC[C@H](C)[C@@H](N)C(=O)O; Cya = N[C@@H](CS(=O)(=O)O)C(=O)O; Hyp = O=C(O)[C@@H]1C[C@@H](O)CN1; dCya = N[C@H](CS(=O)(=O)O)C(=O)O; NMeL = CN[C@@H](CC(C)C)C(=O)O; Ac6c = NC1(C(=O)O)CCCCC1; NMeA = CN[C@@H](C)C(=O)O; Nle = CCCC[C@H](N)C(=O)O; Moc = COC(=O)*; For = O=C*

The target in the assay is T1, endothelin receptor (membrane of smooth muscle tissue of porcine aorta) (Sus scrofa, UniProt Q29010).
T1 construct: from tissue; host or cells: smooth muscle tissue of porcine aorta (membrane fraction)
T1 sequence (Q29010 21-427): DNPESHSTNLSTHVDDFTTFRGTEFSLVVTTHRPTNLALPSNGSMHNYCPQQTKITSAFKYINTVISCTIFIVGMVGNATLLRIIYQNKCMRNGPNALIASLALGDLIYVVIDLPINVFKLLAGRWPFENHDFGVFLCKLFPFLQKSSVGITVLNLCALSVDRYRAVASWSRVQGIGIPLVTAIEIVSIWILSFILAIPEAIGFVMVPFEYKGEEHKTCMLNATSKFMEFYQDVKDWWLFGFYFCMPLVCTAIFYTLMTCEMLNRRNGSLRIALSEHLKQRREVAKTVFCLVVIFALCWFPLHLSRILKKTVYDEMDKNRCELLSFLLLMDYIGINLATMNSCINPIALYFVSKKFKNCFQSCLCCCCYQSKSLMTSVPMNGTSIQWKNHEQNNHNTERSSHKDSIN
Nature of the assay: Endothelin binding inhibition test (125I-endothelin-1, porcine aorta smooth muscle membrane). The conditions noted are these: for inhibition at 1.1 µM: read-out: 125I-endothelin-1 binding inhibition, Inhibition (%). Here is the method:
Endothelin binding inhibition test
The smooth muscle tissue of porcine aorta was homogenized in a buffer solution of 10 mM MOPS, pH 7.4, at 4° C. by a polytron. To the homogenate, sucrose was added to a concentration of 20%, and the mixture was centrifuged at 1,000×g for 15 minutes, and the supernatant was further centrifuged at 10,000×g for 15 minutes. The supernatant thereof was further centrifuged at 90,000×g for 40 minutes. The membrane precipitate thereby obtained was suspended in a buffer solution of 5 mM HEPES/Tris, pH 7.4, at a concentration of 25 mg/ml.
Then, 16 μl of this membrane suspension was added to 340 μl of 50 mM Tris/HCl buffer, pH 7.4, containing 10 μM calcium chloride, 10 μM magnesium chloride, 0.1 mM PMSF, 1 μM pepstatin A, 2 μM leupeptin, 1 mM 1,10-phenanthroline and 0.1% bovine serum albumin. To this suspension, 4 μl of (A) endothelin-1 (for nonspecific binding: 0.2 μM as the final concentration), (B) buffer solution A (for total control binding), or (C) a test compound (1.1 μM as the final concentration), was added. Further, to each suspension, 40 μl of ^125 I-endothelin-1 (12000-18000 cpm) was added. These mixtures were incubated at 25° C for 4 hours, then subjected to filtration on a glass filter GF/C and then washed with 5 mM HEPES/Tris, pH 7.4, containing 0.3% bovine serum albumin. Then, the radioactivity trapped by the glass filter was measured, and the ^125 I-endothelin-1 binding inhibition D (%) at 1.1 μM of the test compound was determined by the following equation. [formula] Each test was performed in triplicate.

The mark [1] stands for this setting: 1.1 μM of the test compound, porcine aorta smooth muscle membrane, 25° C, 4 hours.

On to “cyclo(-DTrp-DAsp-Pro-DtertLeu-Leu-) [Example 71]”, for which, under setting [1], the “125I-endothelin-1 binding inhibition, Inhibition (%)” value came to 80%.

For cyclo([dW][dD]P[d(aIle)]L) [Example 32], the “125I-endothelin-1 binding inhibition, Inhibition (%)” value under setting [1] worked out at 87%. The inhibition is how much of the control response was suppressed. Take `CC(C)C[C@@H]1NC(=O)[C@@H](C(C)C)NC(=O)[C@H](CCCCN)NC(=O)[C@@H](CS(=O)(=O)O)NC(=O)[C@@H](Cc2c[nH]c3ccccc23)NC1=O` [Example 50, cyclo(-DTrp-nCys(O3 H)-Lys-DVal-Leu-)] (cyclo(K[dV]L[dW][dCya])): under setting [1], the inhibition at 1.1 µM is 57%. In the case of `CC(C)C[C@@H]1NC(=O)[C@@H](C(C)C)NC(=O)[C@H](C)N(C)C(=O)[C@@H](CC(=O)O)NC(=O)[C@@H](Cc2c[nH]c3ccccc23)NC1=O` [Example 13, cyclo(-DTrp-DAsp-MeAla-DVal-Leu-)] (cyclo(L[dW][dD][NMeA][dV])), the inhibition at 1.1 µM under setting [1] is 85%.

Regarding `CC(C)C[C@@H]1NC(=O)[C@@H](C(C)C)NC(=O)[C@H](C)NC(=O)[C@@H](CS(=O)(=O)O)NC(=O)[C@@H](Cc2c[nH]c3ccccc23)NC1=O` [Example 2, cyclo(-DTrp-DCys(O3 Na)-Ala-DVal-Leu-)] (cyclo(A[dV]L[dW][dCya])), the inhibition at 1.1 µM under setting [1] amounted to 78%. Consider `CC(C)C[C@H]1C(=O)N[C@H](Cc2c[nH]c3ccccc23)C(=O)N[C@H](CC(=O)O)C(=O)N2CCC[C@H]2C(=O)N[C@H](C(C)C)C(=O)N1C` [Example 69, cyclo(-DTrp-DAsp-Pro-DVal-MeLeu-)] (cyclo([NMeL][dW][dD]P[dV])), for which the inhibition at 1.1 µM under setting [1] was determined as 85%. For `CC(C)C[C@@H]1NC(=O)[C@@H](C(C)C)NC(=O)[C@@H]2CCCN2C(=O)[C@@H](CC(=O)O)NC(=O)[C@@H](Cc2cn(C=O)c3ccccc23)NC1=O` [Example 51, cyclo(-DTrp(CHO)-DAsp-Pro-DVal-Leu-)] (cyclo(L[dW](For)[dD]P[dV])), the inhibition at 1.1 µM under setting [1] stood at 84%. Take `CC(C)C[C@@H]1NC(=O)[C@@H](C(C)C)NC(=O)[C@H](CCCCN)NC(=O)[C@@H](CC(=O)O)NC(=O)[C@@H](Cc2c[nH]c3ccccc23)NC1=O` [Example 4, cyclo(-DTrp-DAsp-Lys-DVal-Leu-)] (cyclo(K[dV]L[dW][dD])): the inhibition at 1.1 µM under setting [1] is 74%.

For `CNC(=O)Cn1cc(C[C@H]2NC(=O)[C@H](CC(C)C)NC(=O)[C@@H](C(C)C)NC(=O)[C@@H]3CCCN3C(=O)[C@@H](CC(=O)O)NC2=O)c2ccccc21` [Example 92, cyclo(-DTrp(CH2 CONHCH3)-DAsp-Pro-DVal-Leu-)] (cyclo(L[X2][dD]P[dV])), the inhibition at 1.1 µM under setting [1] was 28%. For `CC[C@H](C)[C@@H]1NC(=O)[C@@H](C(C)C)NC(=O)[C@@H]2CCCN2C(=O)[C@@H](CC(=O)O)NC(=O)[C@@H](Cc2c[nH]c3ccccc23)NC1=O` [Example 40, cyclo(-DTrp-DAsp-Pro-DVal-Ile-)] (cyclo(I[dW][dD]P[dV])), the inhibition at 1.1 µM under setting [1] was 66%. For `CC(C)C[C@@H]1NC(=O)C2(CCCCC2)NC(=O)[C@@H]2CCCN2C(=O)[C@@H](CC(=O)O)NC(=O)[C@@H](Cc2c[nH]c3ccccc23)NC1=O` [Example 64, cyclo(-DTrp-DAsp-Pro-Ac6 c-Leu-)] (cyclo([Ac6c]L[dW][dD]P)), under setting [1], the inhibition at 1.1 µM stood at 83%.

With “cyclo(-DTrp-DCys(O3 Na)-Pro-DThg-Leu-) [Example 76]”, under setting [1], the “125I-endothelin-1 binding inhibition, Inhibition (%)” value was 84%. As to `CCCC[C@@H]1NC(=O)[C@@H](C(C)C)NC(=O)[C@H](CO)NC(=O)[C@@H](CC(=O)O)NC(=O)[C@@H](Cc2cn(C=O)c3ccccc23)NC1=O` [Example 54, cyclo(-DTrp(CHO)-DAsp-Ser-DVal-Nle-)] (cyclo([Nle][dW](For)[dD]S[dV])), the inhibition at 1.1 µM under setting [1] was found to be 65%. Regarding `CC(C)C[C@@H]1NC(=O)[C@@H](C(C)C)NC(=O)[C@H](CS(=O)(=O)O)NC(=O)[C@@H](CS(=O)(=O)O)NC(=O)[C@@H](Cc2c[nH]c3ccccc23)NC1=O` [Example 42, cyclo(-DTrp-DCys(O3 Na)-Cys(O3 Na)-DVal-Leu-)] (cyclo([Cya][dV]L[dW][dCya])), the inhibition at 1.1 µM turned out to be 79%. In the case of `CCCC[C@@H]1NC(=O)[C@@H](C(C)C)NC(=O)[C@H](CO)NC(=O)[C@@H](CC(=O)O)NC(=O)[C@@H](Cc2c[nH]c3ccccc23)NC1=O` [Example 36, cyclo(-DTrp-DAsp-Ser-DVal-Nle-)] (cyclo([Nle][dW][dD]S[dV])), under setting [1], the inhibition at 1.1 µM worked out at 67%. For `CC(C)C[C@@H]1NC(=O)[C@@H]([C@H](C)O)NC(=O)[C@H](C)NC(=O)[C@@H](CC(=O)O)NC(=O)[C@@H](Cc2c[nH]c3ccccc23)NC1=O` [Example 29, cyclo(-DTrp-DAsp-Ala-DThr-Leu-)] (cyclo(A[dT]L[dW][dD])), the inhibition at 1.1 µM under setting [1] was determined as 15%. Turning to `CC(C)C[C@@H]1NC(=O)[C@@H](C2CCCC2)NC(=O)[C@@H]2CCCN2C(=O)[C@@H](CC(=O)O)NC(=O)[C@@H](Cc2c[nH]c3ccccc23)NC1=O` [Example 81, cyclo(-DTrp-DAsp-Pro-DCpg-Leu-)] (cyclo(L[dW][dD]P[dGly(cPent)])), the inhibition at 1.1 µM under setting [1] is 86%. Consider `CC(C)C[C@@H]1NC(=O)[C@@H](c2cccs2)NC(=O)[C@@H]2C[C@@H](O)CN2C(=O)[C@@H](CC(=O)O)NC(=O)[C@@H](Cc2c[nH]c3ccccc23)NC1=O` [Example 79, cyclo(-DTrp-DAsp-trans-Hyp-DThg-Leu-)] (cyclo([Hyp][dGly(2-thienyl)]L[dW][dD])), for which the inhibition at 1.1 µM under setting [1] turned out to be 88%. Same read-out and setting: in the case of `CC[C@@H](C)[C@H]1NC(=O)[C@@H]2CCCN2C(=O)[C@@H](CC(=O)O)NC(=O)[C@@H](Cc2c[nH]c3ccccc23)NC(=O)[C@H](CC(C)C)NC1=O` [Example 31, cyclo(-DTrp-DAsp-Pro-DIle-Leu-)] (cyclo(L[dW][dD]P[dI])) it was 80%.

With `CC(C)[C@H]1NC(=O)[C@@H]2CCCN2C(=O)[C@@H](CC(=O)O)NC(=O)[C@@H](Cc2c[nH]c3ccccc23)NC(=O)[C@H](Cc2c[nH]cn2)NC1=O` [Example 84, cyclo(-DTrp-DAsp-Pro-DVal-His)] (cyclo(H[dW][dD]P[dV])), under setting [1], the inhibition at 1.1 µM was determined as 43%. Turning to `CC(C)C[C@@H]1NC(=O)[C@@H](C(C)C)NC(=O)[C@H](CC(=O)O)NC(=O)[C@@H](CCC(=O)O)NC(=O)[C@@H](Cc2c[nH]c3ccccc23)NC1=O` [Example 9, cyclo(-DTrp-DGlu-Asp-DVal-Leu-)] (cyclo(D[dV]L[dW][dE])), the inhibition at 1.1 µM under setting [1] was 30%. On the same count and under the same terms, then `CC(C)[C@H]1NC(=O)[C@H](C)NC(=O)[C@@H](CC(=O)O)NC(=O)[C@@H](Cc2c[nH]c3ccccc23)NC(=O)[C@@H]2CCCN2C1=O` [Example 39, cyclo(-DTrp-DAsp-Ala-DVal-Pro-)] (cyclo(A[dV]P[dW][dD])), with 18%; and `CC(C)C[C@@H]1NC(=O)[C@@H](C(C)C)NC(=O)[C@H](CCC(N)=O)NC(=O)[C@@H](CC(=O)O)NC(=O)[C@@H](Cc2c[nH]c3ccccc23)NC1=O` [Example 21, cyclo(-DTrp-nAsp-Gln-DVal-Leu-)] (cyclo(L[dW][dD]Q[dV])), with 73%; and `CC(C)C[C@@H]1NC(=O)[C@@H](C(C)C)NC(=O)[C@@H]2CCCN2C(=O)[C@@H](CC(=O)O)NC(=O)[C@@H](Cc2cn(CC(N)=O)c3ccccc23)NC1=O` [Example 91, cyclo(-DTrp(CH2 CONH2)-DAsp-Pro-DVal-Leu-)] (cyclo(L[X3][dD]P[dV])), with 23%.

As for `CC(C)C[C@@H]1NC(=O)[C@@H](C(C)C)NC(=O)[C@H](CS)NC(=O)[C@@H](CC(=O)O)NC(=O)[C@@H](Cc2c[nH]c3ccccc23)NC1=O` [Example 25, cyclo(-DTrp-DAsp-Cys-DVal-Leu-)] (cyclo(C[dV]L[dW][dD])), the inhibition at 1.1 µM under setting [1] turned out to be 74%. For the compound `CC[C@]1(c2cccs2)NC(=O)[C@@H]2CCCN2C(=O)[C@@H](CC(=O)O)NC(=O)[C@@H](Cc2c[nH]c3ccccc23)NC(=O)[C@H](CC(C)C)NC1=O` [Example 82, cyclo(-DTrp-DAsp-Pro-DEtg-Leu-)] (cyclo(L[dW][dD]P[X1])), the inhibition at 1.1 µM under setting [1] turned out to be 81%.

Consider `COC(=O)n1cc(C[C@H]2NC(=O)[C@H](CC(C)C)NC(=O)[C@@H](C(C)C)NC(=O)[C@@H]3CCCN3C(=O)[C@@H](CC(=O)O)NC2=O)c2ccccc21` [Example 86, cyclo(-DTrp(COOCH3)-DAsp-Pro-DVal-Leu-)] (cyclo(L[dW](Moc)[dD]P[dV])), for which the inhibition at 1.1 µM under setting [1] is 90%. As for “cyclo(-DTrp-DAsp-Cys(O3 Na)-DVal-Leu-) [Example 24]”, the “125I-endothelin-1 binding inhibition, Inhibition (%)” value under setting [1] is 78%.
